These results are taken from patent publication US5476661A, “Compositions for topical application to skin, hair and nails” (Elizabeth Arden Co., Division of Conopco, Inc., priority 1994, dated 1995).

SMILES strings stand for the structures. Entries after “also recorded” stand apart in the source; their conditions may differ. Read-outs that look alike come from different tables or passages of the source.

The test system of series [1] is normal human keratinocytes. Briefly: DNA synthesis rate (3H-thymidine incorporation) in normal human keratinocytes. The class given is cell-based. The conditions noted are these: for activity at 1 µM / activity at 0.01 µM / activity at 0.1 µM / activity at 0.001 µM: read-out: DNA synthesis of keratinocytes; for activity at 0.01 µM: 10 nM. The text has this:
Initiation of differentiation of keratinocytes is accompanied by inhibition of their growth. The rate of synthesis of DNA determined by the incorporation of radiolabeled substrate [^3 H] thymidine, is an indicator of the rate of growth of the cells. A decrease in DNA synthesis therefore indicates decrease in growth and increase in differentiation of keratinocytes.
Methodology Used for Determining the Rate of DNA Synthesis in Keratinocytes After Treatment With Various Actives
1. Normal human keratinocytes isolated from neonatal foreskins by trypsin treatment were grown in DME medium/10% fetal calf serum in the presence of irradiated 3T3 mouse fibroblasts for establishing dividing keratinocyte colonies. Keratinocytes were grown under the above condition until their third passage.
2. For the experiments, third passage keratinocytes were plated into a serum-free keratinocyte growth medium (KGM; obtained from Clonetics Corporation, San Diego, Calif.) containing 0.15 mM calcium. 20,000 to 30,000 cells were plated into each well of 24 well cell culture plates and grown for 5 days, until the cells reach about 80% confluence.
3. Medium was changed to fresh medium and the various test materials were added to the medium from an ethanolic stock solution (10 A.M.). The final ethanol concentration in the cultures was kept below 0.2%. Control cultures received no tested material but were dosed with 0.2% ethanol. Each compound or combination was tested in three separate wells. By 4 P.M., 1 uCi of ^3 H-thymidine (AmerSham Corp., Sp activity 40 Ci/mmol) was added to the 1 ml medium in each well. The cells were incubated overnight and 24 hours later (10 A.M. next day) the amount of ^3 H-thymidine associated with the cellular DNA of keratinocytes was assessed as described below.
4. The medium was aspirated, and the wells washed with 1 ml phosphate-buffered saline. The DNA and proteins of the cells in the plate were then precipitated by adding 1 ml of ice-cold 10% trichloroacetic acid (TCA). The plates were left on ice for 30 minutes to complete the precipitation process. TCA was then aspirated and each well was then washed four times with 5% TCA. The plates were then dried on a filter pad and the cells in the wells were dissolved in 0.5 ml of 0.1N sodium hydroxide. The sodium hydroxide was then neutralized using 0.1N hydrochloric acid and the solution (1 ml total volume) was then transferred to a scintillation vial. 100 ul samples from each vial were used for protein assay using BCA protein assay reagent obtained from Pierce Chemical Company. 8 ml of a scintillation fluid (Ecolume) was added to the rest of the solution in the vial, and the vials were counted in a scintillation counter to determine the amount of radioactivity in each vial. The DNA synthesis rate was then calculated as cpm ^3 H thymidine incorporated into total cellular DNA/microgram of cell protein for each individual well. Mean and standard deviation for each group was also calculated.
5. All lipids listed in Tables 1-5 below were synthesized in-house. 25-OH-D3 and 1,25-(OH)2 D3 were obtained from Hoffman La Roche. Vitamin D3 was obtained from Sigma.
In general terms: Uptake of a labelled nucleoside into DNA is a usual measure of proliferation.

Series [2] concerns normal human keratinocytes. Put plainly: Vitamin D3 metabolites' uptake by keratinocytes (cell associated radioactivity). The class given is in vitro ADME. The settings on record: for Uptake by keratinocytes, cell associated radioactivity: 60 picomolar, mean of duplicate. On the procedure:
Normal human keratinocytes were grown to confluence in Keratinocyte growth medium (KGM) containing 0.15 mM calcium. Medium was changed to fresh medium. The cells were then incubated in duplicate with 10,000 cpm (60 picomolar, or 25 picogram/ml medium) of 25-OH-D3 or 1,25-(OH)2 D3 for various times (0 to 240 minutes). At different time intervals indicated in the Table below, the medium of appropriate wells were aspirated, and the wells were washed three times with a 0.2% bovine serum albumin solution in 50 mM Tris/0.15M sodium chloride buffer pH 7.4. After the wash the cells in the wells were dissolved in 0.1N sodium hydroxide, neutralized with 0.1N hydrochloric acid, mixed with 5 ml of scintillation fluid (Ecolume) and counted in a beta counter. The amount of cpm associated with the cells was calculated as the percent of total cpm added for each time point studied. Data in the table is expressed as cell associated radioactivity as % of total added. Each reported result is a mean of duplicate determinations.

The test system of series [3] is keratinocytes. The settings on record: MacLaughlin et al.; Bikle et al.; cited from earlier work.
Series [4] relates to keratinocytes. The settings on record: applied topically to skin; MacLaughlin et al.; cited from earlier work.
[5] abbreviates: Homo sapiens, Keratinocyte, Table 5, 3 μM lipid, 0 nM 25-OH-D3, * = statistically significant growth inhibition.

`CCCCCCCCCCCCC/C=C/C(O)C(CO)NC(C)=O` (stereo not shown) [Ceramide (Formula A)]: the activity at 0.3 µM in series [1] (Homo sapiens, Keratinocyte, Table 2, ceramide alone, 0.3 μM, Test 3) turned out to be 146 ± 21%. The activity at 1 µM in series [1] (Homo sapiens, Keratinocyte, Table 2, ceramide alone, 1.0 μM, Test 1) stood at 115 ± 11%; in series [1] (Homo sapiens, Keratinocyte, Table 2, ceramide alone, 1.0 μM, Test 2), 83.1 ± 6%. The activity at 3 µM in series [1] (Homo sapiens, Keratinocyte, Table 2, ceramide alone, 3.0 μM, Test 3) stood at 112 ± 13%; in series [1] (Homo sapiens, Keratinocyte, Table 4, 3.0 μM ceramide, 0 vitamin D3 or metabolite (ethanol vehicle only)), 87.9 ± 0.8%; in series [1] (setting [5]), 88 ± 0.8%. The activity at 10 µM in series [1] (Homo sapiens, Keratinocyte, Table 2, ceramide alone, Test 1) was determined as 105 ± 22.4%; in series [1] (Homo sapiens, Keratinocyte, Table 2, ceramide alone, Test 2, * = statistically significant growth inhibition), 69.9 ± 10%; in series [1] (Homo sapiens, Keratinocyte, Table 2, ceramide alone, Test 3, * = statistically significant growth inhibition), 66 ± 14%. The minimal effective concentration in series [1] (Homo sapiens, Keratinocyte, Table 2 summary, only at the highest concentration, 2 out of 3 experiments, read-out: concentration at which statistically significant growth inhibition occurred) was 10 µM.

For `C=C1CC[C@H](O)C/C1=C/C=C1\CCC[C@]2(C)[C@@H]([C@H](C)CCCC(C)(C)O)CC[C@@H]12` [Formula 25-OH--D3, 25-hydroxycholecalciferol], the activity at 0.01 µM came out at 86.5 ± 9% in series [1] (Homo sapiens, Keratinocyte, Table 1, compound alone, Test 2); 95.2 ± 6.8% in series [1] (Homo sapiens, Keratinocyte, Table 1, compound alone, Test 3); 97.2 ± 5.92% in series [1] (Homo sapiens, Keratinocyte, Table 3, 25-OH-D3 alone). Moreover, the activity at 0.1 µM in series [1] (Homo sapiens, Keratinocyte, Table 1, compound alone, 100 nM, Test 1, * = statistically significant growth inhibition) was 86.5 ± 5.4%; in series [1] (Homo sapiens, Keratinocyte, Table 1, compound alone, 100 nM, Test 2, * = statistically significant growth inhibition) it was 79.1 ± 2.6%; in series [1] (Homo sapiens, Keratinocyte, Table 3, 25-OH-D3 alone, 100 nM), 86.5 ± 5.47%; in series [1] (Homo sapiens, Keratinocyte, Table 5, 100 nM 25-OH-D3, no ceramide), 88.5 ± 7.2%. Besides, the activity at 1 µM amounted to 78.9 ± 5.4% in series [1] (Homo sapiens, Keratinocyte, Table 1, compound alone, 1000 nM, Test 2, * = statistically significant growth inhibition) and 67.8 ± 5.92% in series [1] (Homo sapiens, Keratinocyte, Table 3, 25-OH-D3 alone, 1000 nM). Also, the activity at 0.001 µM in series [1] (Homo sapiens, Keratinocyte, Table 3, 25-OH-D3 alone, 1 nM (second line)) came out at 99.3 ± 1.91%; in series [1] (Homo sapiens, Keratinocyte, Table 3, 25-OH-D3 alone, first line, concentration printed as 1 nM), 100 ± 4.71%. The minimal effective concentration in series [1] (Homo sapiens, Keratinocyte, read-out: concentration at which statistically significant cell growth inhibition was consistently observed, Table 1 summary, compound alone, only at this concentration) is 1 µM. Besides, the “Uptake by keratinocytes, cell associated radioactivity” value is 2.5 % of total added in series [2] (0 minutes); 3.2 % of total added in series [2] (2 minutes); 0.3 % of total added in series [2] (5 minutes); 3.4 % of total added in series [2] (10 minutes); 8.3 % of total added in series [2] (15 minutes); 8.1 % of total added in series [2] (30 minutes). In addition, the “Uptake by keratinocytes, cell associated radioactivity” value in series [2] (60 minutes) is reported as 6.2 % of total added; in series [2] (120 minutes) it was 6.8 % of total added; in series [2] (240 minutes), 9.8 % of total added. In addition, in series [2] (Table 6 summary), the “uptake rate by keratinocytes / skin cells” value is “slower uptake; also recorded: taken up by keratinocytes at a substantially slower rate than 1,25-(OH)2 D3”. Moreover, in the series with keratinocytes [3], the “conversion in skin / keratinocytes” value was “converted to 1,25-(OH)2 D3 in keratinocyte cultures”.

`CCCCCCCCCCCCCCC(O)CN(CCO)C(C)=O` (stereo not shown) [pseudoceramide (Formula C)]: the activity at 3 µM in series [1] (setting [5]) was 51.4 ± 4%.

Consider `C=C1CC[C@H](O)C/C1=C/C=C1\CCC[C@]2(C)[C@@H]([C@H](C)CCCC(C)C)CC[C@@H]12` [vitamin D3], for which, in series [1] (Table 4 summary, vitamin D3 alone), the “statistically significant growth inhibition” value is listed as “does not show statistically significant growth inhibition”. For the same compound, the “conversion in skin / keratinocytes” value in the series on keratinocytes [3] is “nor is it converted in the skin to 25-OH-D3 derivative”. Besides, in the series with keratinocytes [4], the keratinocyte prodifferentiating activity entry is reported as “neither has keratinocyte prodifferentiating activity”.
